In US6875768B1, “Phthalamide derivatives, intermediates in the production thereof, and agricultural/horticultural insecticides and method for using the same” (Nihon Nohyako Co., Ltd., priority 1999, dated 2005):

Experiments:
[1] = test system: Common cutworm (Spodoptera litura); type: in vivo; details: 500 ppm; cabbage leaf immersed about 30 seconds; second-instar larvae; eight days after the inoculation; 25° C.
From the text: Insecticidal Effect on Common cutworm (Spodoptera litura)

[2] = test system: diamond back moth (Plutella xylostella); type: in vivo; details: 1,000 ppm; Chinese cabbage seedling with eggs immersed about 30 seconds; counted six days after the immersion; 25° C.
From the text: Insecticidal effect on diamond back moth (Plutella xylostella)
Adult diamond back moths were released and allowed to oviposit on a Chinese cabbage seedling. […] Six days after the immersion, the hatched insects were counted. […] [formula] Criterion • A - - - Mortality 100% • B - - - Mortality 99-90% • C - - - Mortality 89-80% • D - - - Mortality 79-50%

CC(C)NC(=O)c1c(I)cccc1C(=O)Nc1ccc(OC(F)(F)C(F)F)nc1Cl [Q27-387]
insecticidal effect (activity ranking by mortality) [1]: B or higher | insecticidal effect (activity ranking by mortality) [2]: B or higher

Cc1nc(OC(F)(F)C(F)F)ccc1NC(=O)c1cccc(I)c1C(=O)NC(C)C [Q27-378]
insecticidal effect (activity ranking by mortality) [1]: B or higher | insecticidal effect (activity ranking by mortality) [2]: B or higher

CSCC(C)(C)NC(=O)c1c(C(=O)Nc2ccc(OC(C(F)(F)F)C(F)(F)F)nc2C)cccc1C(F)(F)F [Q27-359]
insecticidal effect (activity ranking by mortality) [1]: B or higher | insecticidal effect (activity ranking by mortality) [2]: B or higher

CSCC(C)(C)NC(=O)c1c(C(=O)Nc2ccc(OC(C(F)(F)F)C(F)(F)F)nc2C)cccc1[N+](=O)[O-] [Q27-352]
insecticidal effect (activity ranking by mortality) [1]: B or higher | insecticidal effect (activity ranking by mortality) [2]: B or higher

CC(C)NC(=O)c1c(Cl)cccc1C(=O)Nc1nc(C(F)(F)F)cs1 [Q8-3]
insecticidal effect (activity ranking by mortality) [2]: B or higher

Cc1nc(OC(C(F)(F)F)C(F)(F)F)ccc1NC(=O)c1cccc(C(F)(F)F)c1C(=O)NC(C)(C)C [Q27-355]
insecticidal effect (activity ranking by mortality) [1]: B or higher | insecticidal effect (activity ranking by mortality) [2]: B or higher

CC(C)NC(=O)c1cccc(Cl)c1C(=O)Nc1nc(-c2ccccc2)cs1 [Q8-14]
insecticidal effect (activity ranking by mortality) [2]: B or higher

Cc1nc(C(F)(C(F)(F)F)C(F)(F)F)ccc1NC(=O)c1cccc(I)c1C(=O)NC(C)(C)C[S+](C)[O-] (stereo not drawn) [Q27-244]
insecticidal effect (activity ranking by mortality) [2]: B or higher

Cc1cc(C(F)(C(F)(F)F)C(F)(F)F)cnc1NC(=O)c1cccc(I)c1C(=O)NC(C)C [Q26-11]
insecticidal effect (activity ranking by mortality) [1]: B or higher | insecticidal effect (activity ranking by mortality) [2]: B or higher

Cc1nc(OC(C(F)(F)F)C(F)(F)F)ccc1NC(=O)c1ccc(Cl)c(Cl)c1C(=O)NC(C)C [Q27-332]
insecticidal effect (activity ranking by mortality) [1]: B or higher | insecticidal effect (activity ranking by mortality) [2]: B or higher

Cc1nc(C(F)(C(F)(F)F)C(F)(F)F)ccc1NC(=O)c1cccc(I)c1C(=O)NC(C)(C)C[S+](C)[O-] (stereo not drawn) [Q27-153]
insecticidal effect (activity ranking by mortality) [1]: B or higher | insecticidal effect (activity ranking by mortality) [2]: B or higher

CC(C)(CS(C)(=O)=O)NC(=O)c1c(I)cccc1C(=O)Nc1ccc(C(F)(C(F)(F)F)C(F)(F)F)nc1Cl [Q27-236]
insecticidal effect (activity ranking by mortality) [1]: B or higher | insecticidal effect (activity ranking by mortality) [2]: B or higher

CSCC(C)(C)NC(=O)c1c(I)cccc1C(=O)Nc1cnc(C(F)(C(F)(F)F)C(F)(F)F)nc1C [Q32-19]
insecticidal effect (activity ranking by mortality) [1]: B or higher | insecticidal effect (activity ranking by mortality) [2]: B or higher

CCCNC(=O)c1c(Cl)cccc1C(=O)Nc1nc(C)c(Oc2ccccc2)n1C [Q8-11]
insecticidal effect (activity ranking by mortality) [2]: B or higher

C[S+]([O-])CC(C)(C)NC(=O)c1c(I)cccc1C(=O)Nc1ccc(C(F)(C(F)(F)F)C(F)(F)F)nc1Cl (stereo not drawn) [Q27-235]
insecticidal effect (activity ranking by mortality) [1]: B or higher | insecticidal effect (activity ranking by mortality) [2]: B or higher

CSCC(C)(C)NC(=O)c1c(I)cccc1C(=O)Nc1ccc(C(F)(C(F)(F)F)C(F)(F)F)nc1Cl [Q27-234]
insecticidal effect (activity ranking by mortality) [1]: B or higher | insecticidal effect (activity ranking by mortality) [2]: B or higher

Cc1nc(OCC(F)(F)C(F)(F)F)ccc1NC(=O)c1cccc(I)c1C(=O)NC(C)C [Q27-413]
insecticidal effect (activity ranking by mortality) [1]: B or higher | insecticidal effect (activity ranking by mortality) [2]: B or higher

Cc1c(NC(=O)c2c(Cl)cccc2C(=O)NC(C)C)noc1-c1ccc(Cl)cc1 [Q4-8]
insecticidal effect (activity ranking by mortality) [2]: B or higher

Cc1csc(NC(=O)c2cccc(Cl)c2C(=O)NC(C)C)n1 [Q8-2]
insecticidal effect (activity ranking by mortality) [2]: B or higher

CSCC(C)(C)NC(=O)c1c(I)cccc1C(=O)Nc1ccc(NC(=O)C(F)(F)C(F)(F)F)nc1C [Q27-439]
insecticidal effect (activity ranking by mortality) [1]: B or higher | insecticidal effect (activity ranking by mortality) [2]: B or higher

CSCC(C)(C)NC(=O)c1c(I)cccc1C(=O)Nc1ccc(C(F)(C(F)(F)F)C(F)(F)F)nc1C [Q27-243]
insecticidal effect (activity ranking by mortality) [1]: B or higher | insecticidal effect (activity ranking by mortality) [2]: B or higher

CSCC(C)NC(=O)c1c(I)cccc1C(=O)Nc1ccc(OCC(F)(F)C(F)(F)F)nc1C (stereo not drawn) [Q27-414]
insecticidal effect (activity ranking by mortality) [1]: B or higher | insecticidal effect (activity ranking by mortality) [2]: B or higher

Cc1nc(OC(C(F)(F)F)C(F)(F)F)ccc1NC(=O)c1ccc(Cl)c(Cl)c1C(=O)NC(C)C[S+](C)[O-] (stereo not drawn) [Q27-335]
insecticidal effect (activity ranking by mortality) [1]: B or higher | insecticidal effect (activity ranking by mortality) [2]: B or higher

CC(C)NC(=O)c1c(I)cccc1C(=O)Nc1ccc(C(F)(C(F)(F)F)C(F)(F)F)nc1[S+](C)[O-] (stereo not drawn) [Q27-247]
insecticidal effect (activity ranking by mortality) [1]: B or higher | insecticidal effect (activity ranking by mortality) [2]: B or higher

Cc1nc(OC(C(F)(F)F)C(F)(F)F)ccc1NC(=O)c1cccc(C(F)(F)F)c1C(=O)NC(C)C [Q27-354]
insecticidal effect (activity ranking by mortality) [1]: B or higher | insecticidal effect (activity ranking by mortality) [2]: B or higher

Cc1nc(OC(F)(F)C(F)C(F)(F)F)ccc1NC(=O)c1cccc(I)c1C(=O)NC(C)C (stereo not drawn) [Q27-391]
insecticidal effect (activity ranking by mortality) [2]: B or higher

Cc1c(NC(=O)c2c(I)cccc2C(=O)NC(C)C)noc1C(F)(F)F [Q4-45]
insecticidal effect (activity ranking by mortality) [2]: B or higher

CC(C)NC(=O)c1c(Cl)cccc1C(=O)Nc1nccs1 [Q8-1]
insecticidal effect (activity ranking by mortality) [2]: B or higher

CSCC(C)(C)NC(=O)c1c(I)cccc1C(=O)Nc1ccc(OC(F)(F)C(F)F)nc1C [Q27-384]
insecticidal effect (activity ranking by mortality) [1]: B or higher | insecticidal effect (activity ranking by mortality) [2]: B or higher

COc1nc(OC(C(F)(F)F)C(F)(F)F)ccc1NC(=O)c1cccc(I)c1C(=O)NC(C)(C)CSC [Q27-268]
insecticidal effect (activity ranking by mortality) [1]: B or higher | insecticidal effect (activity ranking by mortality) [2]: B or higher

Cc1c(C(F)(F)F)noc1NC(=O)c1cccc(I)c1C(=O)NC(C)C [Q6-8, N^1-(4-methyl-3-trifluoromethyl-isoxazol-5-yl)-N^2-isopropyl-3-iodophthalamide]
insecticidal effect (activity ranking by mortality) [2]: B or higher

Cc1sc(I)nc1NC(=O)c1cccc(I)c1C(=O)NC(C)C [Q9-15]
insecticidal effect (activity ranking by mortality) [2]: B or higher

CC(C)NC(=O)c1c(Cl)cccc1C(=O)Nc1cc(-c2ccc(Br)cc2)on1 [Q4-6]
insecticidal effect (activity ranking by mortality) [2]: B or higher

CCNC(=O)c1c(I)cccc1C(=O)Nc1cnc(C(F)(C(F)(F)F)C(F)(F)F)cn1 [Q34-46]
insecticidal effect (activity ranking by mortality) [1]: B or higher | insecticidal effect (activity ranking by mortality) [2]: B or higher

CC(C)NC(=O)c1c(I)cccc1C(=O)Nc1c(Cl)ncnc1Cl [Q32-11]
insecticidal effect (activity ranking by mortality) [2]: B or higher

Cc1cc(NC(=O)c2cccc([N+](=O)[O-])c2C(=O)NC(C)C)n(C)n1 [Q6-6]
insecticidal effect (activity ranking by mortality) [2]: B or higher

Cc1nc(OC(C(F)(F)F)C(F)(F)F)ccc1NC(=O)c1cccc(C(F)(F)F)c1C(=O)NC(C)(C)C[S+](C)[O-] (stereo not drawn) [Q27-360]
insecticidal effect (activity ranking by mortality) [1]: B or higher | insecticidal effect (activity ranking by mortality) [2]: B or higher

COc1nc(NC(=O)c2cccc(I)c2C(=O)NC(C)C)nc(OC)c1C(F)(C(F)(F)F)C(F)(F)F [Q33-10]
insecticidal effect (activity ranking by mortality) [2]: B or higher

CC(C)NC(=O)c1c(Cl)cccc1C(=O)Nc1nc(-c2ccccc2)c(Cl)s1 [Q8-5]
insecticidal effect (activity ranking by mortality) [2]: B or higher

CCN(CC)C(=O)c1c(I)cccc1C(=O)Nc1cnccn1 [Q34-30]
insecticidal effect (activity ranking by mortality) [2]: B or higher

Cc1c(NC(=O)c2cccc(I)c2C(=O)NC(C)C)noc1C(F)(F)F [Q4-12]
insecticidal effect (activity ranking by mortality) [2]: B or higher

COc1cc(OC)nc(NC(=O)c2ccccc2C(=O)NC(C)C)n1 [Q33-1]
insecticidal effect (activity ranking by mortality) [2]: B or higher

Cc1ccsc1NC(=O)c1c(I)cccc1C(=O)NC(C)C [Q1-42]
insecticidal effect (activity ranking by mortality) [2]: B or higher

Cc1nc(Oc2ccc(C(F)(F)F)cc2)ccc1NC(=O)c1cccc(I)c1C(=O)NC(C)C [Q27-466]
insecticidal effect (activity ranking by mortality) [1]: B or higher

Cc1ncoc1NC(=O)c1cccc(I)c1C(=O)NC(C)C [Q10-7]
insecticidal effect (activity ranking by mortality) [2]: B or higher

CC(C)NC(=O)c1c(Cl)cccc1C(=O)Nc1ccc(C(F)(C(F)(F)F)C(F)(F)F)nc1Cl [Q27-459]
insecticidal effect (activity ranking by mortality) [1]: B or higher

Cc1cc(C(C)(C)C)sc1NC(=O)c1c(I)cccc1C(=O)NC(C)C [Q1-41]
insecticidal effect (activity ranking by mortality) [2]: B or higher

CSCC(C)(C)NC(=O)c1c(I)cccc1C(=O)Nc1ccc(OC(F)(F)C(F)C(F)(F)F)nc1C (stereo not drawn) [Q27-396]
insecticidal effect (activity ranking by mortality) [2]: B or higher

Cc1cc(C(C)(C)C)sc1NC(=O)c1cccc(I)c1C(=O)NC(C)C [Q1-12]
insecticidal effect (activity ranking by mortality) [2]: B or higher

CSCC(C)(C)NC(=O)c1c(I)cccc1C(=O)Nc1ccc(OC(F)(F)C(F)C(F)(F)F)nc1C (stereo not drawn) [Q27-393]
insecticidal effect (activity ranking by mortality) [2]: B or higher

CC(C)NC(=O)c1cccc(Cl)c1C(=O)Nc1nc(C(F)(F)F)cs1 [Q8-13]
insecticidal effect (activity ranking by mortality) [2]: B or higher

CC(C)NC(=O)c1c(I)cccc1C(=O)Nn1cnnc1 [Q15-1]
insecticidal effect (activity ranking by mortality) [2]: B or higher

CCN(CC)C(=O)c1c(I)cccc1C(=O)Nc1nc(-c2ccc(Cl)cc2)cs1 [Q8-53]
insecticidal effect (activity ranking by mortality) [2]: B or higher

CC(C)NC(=O)c1cccc(Cl)c1C(=O)Nc1nc(-c2ccccc2)c(Cl)s1 [Q8-15]
insecticidal effect (activity ranking by mortality) [2]: B or higher

Cc1cc(C(F)(C(F)(F)F)C(F)(F)F)ncc1NC(=O)c1cccc(I)c1C(=O)NC(C)(C)C[S+](C)[O-] (stereo not drawn) [Q27-152]
insecticidal effect (activity ranking by mortality) [1]: B or higher
